Test results from publication PMC7035247 (Scientific Reports, 2020).
Read-outs that look alike come from different tables or passages of the source.

Columns and labels:
[1] = target: WL-Pgp (Trp-less Pgp, all eleven Trps substituted) (Mus musculus, UniProt P21447, W1104Y/W132L/W158Y/W208P/W228M/W311Y/W44H/W694I/W704I/W799Y/W851P); experiment: biochemical
Protocol: (§1) The rate of ATP hydrolysis was measured at 37 °C, by an ATPase-linked enzyme assay, in the absence and presence of drugs, and statistical analysis were done as described[74],[79]. For biophysical studies, Pgp was exchanged into SEC buffer (20 mM HEPES pH 7.4, 150 mM NaCl, 10% glycerol, 0.05% DDM,) by size exclusion chromatography (SEC) on Superdex 200 (1 × 30 cm column)[85].

[2] = target: WT Pgp (codon-optimized mouse mdr1a Pgp) (Mus musculus, UniProt P21447); experiment: biochemical
Sequence of WT Pgp (codon-optimized mouse mdr1a Pgp) (P21447 whole entry): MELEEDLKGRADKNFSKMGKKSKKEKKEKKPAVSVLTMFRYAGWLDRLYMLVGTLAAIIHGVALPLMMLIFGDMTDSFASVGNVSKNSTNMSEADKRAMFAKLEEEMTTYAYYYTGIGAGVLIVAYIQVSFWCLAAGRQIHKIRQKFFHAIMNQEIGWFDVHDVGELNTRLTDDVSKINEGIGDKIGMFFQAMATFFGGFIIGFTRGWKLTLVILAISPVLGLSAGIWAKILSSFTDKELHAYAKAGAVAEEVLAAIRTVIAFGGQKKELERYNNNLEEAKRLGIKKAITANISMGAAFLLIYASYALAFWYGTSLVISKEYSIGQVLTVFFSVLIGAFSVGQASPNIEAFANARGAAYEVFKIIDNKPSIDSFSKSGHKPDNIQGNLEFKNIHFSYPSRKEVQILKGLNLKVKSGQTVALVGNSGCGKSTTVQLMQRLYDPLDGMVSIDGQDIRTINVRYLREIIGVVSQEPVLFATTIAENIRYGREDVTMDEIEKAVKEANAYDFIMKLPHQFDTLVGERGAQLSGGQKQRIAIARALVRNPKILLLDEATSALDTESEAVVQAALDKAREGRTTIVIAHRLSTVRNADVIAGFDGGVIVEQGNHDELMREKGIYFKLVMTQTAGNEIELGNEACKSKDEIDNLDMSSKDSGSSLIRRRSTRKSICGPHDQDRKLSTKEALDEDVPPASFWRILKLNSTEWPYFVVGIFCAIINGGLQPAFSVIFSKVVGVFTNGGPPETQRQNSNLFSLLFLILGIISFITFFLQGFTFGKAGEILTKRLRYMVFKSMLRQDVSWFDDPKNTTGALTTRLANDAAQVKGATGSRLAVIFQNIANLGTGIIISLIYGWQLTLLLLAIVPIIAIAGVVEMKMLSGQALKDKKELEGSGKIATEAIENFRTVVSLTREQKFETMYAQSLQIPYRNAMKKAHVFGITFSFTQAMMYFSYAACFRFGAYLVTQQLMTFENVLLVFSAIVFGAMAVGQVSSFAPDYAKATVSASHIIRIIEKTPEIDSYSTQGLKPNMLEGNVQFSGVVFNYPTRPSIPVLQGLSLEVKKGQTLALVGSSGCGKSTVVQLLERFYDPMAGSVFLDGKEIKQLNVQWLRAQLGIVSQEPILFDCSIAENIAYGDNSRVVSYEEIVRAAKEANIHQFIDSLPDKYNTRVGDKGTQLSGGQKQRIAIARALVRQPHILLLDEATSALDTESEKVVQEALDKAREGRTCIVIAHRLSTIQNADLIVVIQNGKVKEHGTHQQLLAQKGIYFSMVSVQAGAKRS
Protocol: as §1

[3] = target: T1, W(3Cyto) Pgp (W44H/W132L/W208P/W228M/W311Y/W694I/W704I/W851P) (Mus musculus, UniProt P21447, W132L/W208P/W228M/W311Y/W44H/W694I/W704I/W851P); experiment: biochemical
T1 sequence (P21447 whole entry W44H/W132L/W208P/W228M/W311Y/W694I/W704I/W851P): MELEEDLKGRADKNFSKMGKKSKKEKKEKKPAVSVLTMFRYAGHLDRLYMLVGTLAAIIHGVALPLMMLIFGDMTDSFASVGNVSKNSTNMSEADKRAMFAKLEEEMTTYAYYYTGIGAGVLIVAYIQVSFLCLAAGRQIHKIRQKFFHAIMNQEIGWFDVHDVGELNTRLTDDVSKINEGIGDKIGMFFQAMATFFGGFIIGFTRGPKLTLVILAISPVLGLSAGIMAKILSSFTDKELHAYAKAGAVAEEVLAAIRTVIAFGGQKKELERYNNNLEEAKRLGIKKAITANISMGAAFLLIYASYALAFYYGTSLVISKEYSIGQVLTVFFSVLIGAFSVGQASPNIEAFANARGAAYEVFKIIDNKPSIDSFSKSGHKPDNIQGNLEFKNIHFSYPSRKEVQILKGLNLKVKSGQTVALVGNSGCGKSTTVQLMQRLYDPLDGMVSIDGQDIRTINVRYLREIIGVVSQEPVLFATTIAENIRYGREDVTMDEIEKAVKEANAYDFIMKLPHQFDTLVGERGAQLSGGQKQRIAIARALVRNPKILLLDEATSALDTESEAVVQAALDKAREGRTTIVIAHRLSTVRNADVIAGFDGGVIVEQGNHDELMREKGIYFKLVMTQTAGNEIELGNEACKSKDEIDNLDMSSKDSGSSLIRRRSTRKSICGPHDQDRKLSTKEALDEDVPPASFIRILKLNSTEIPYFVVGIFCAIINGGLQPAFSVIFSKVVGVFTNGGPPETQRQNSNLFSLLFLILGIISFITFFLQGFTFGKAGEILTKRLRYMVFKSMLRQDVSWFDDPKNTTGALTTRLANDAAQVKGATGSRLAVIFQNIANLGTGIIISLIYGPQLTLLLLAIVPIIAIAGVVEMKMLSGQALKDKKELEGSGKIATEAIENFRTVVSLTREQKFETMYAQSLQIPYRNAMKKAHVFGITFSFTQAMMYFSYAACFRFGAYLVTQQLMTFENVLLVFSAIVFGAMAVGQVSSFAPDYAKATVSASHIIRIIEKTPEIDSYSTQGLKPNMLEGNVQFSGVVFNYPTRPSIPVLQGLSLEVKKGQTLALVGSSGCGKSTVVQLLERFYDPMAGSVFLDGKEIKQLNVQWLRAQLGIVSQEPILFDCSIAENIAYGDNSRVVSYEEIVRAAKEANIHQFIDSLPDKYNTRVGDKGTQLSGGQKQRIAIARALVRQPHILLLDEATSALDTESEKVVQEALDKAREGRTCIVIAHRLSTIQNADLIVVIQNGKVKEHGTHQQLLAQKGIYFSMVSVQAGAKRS
Protocol: (§2) The rate of ATP hydrolysis was measured at 37 °C, by an ATPase-linked enzyme assay[87], in the absence and presence of drugs, and statistical analysis were done as described[74],[79].

[4] = system: S. cerevisiae JPY201 expressing Pgp variants; settings: 30 µM doxorubicin
Protocol: Cultures of the transformants were screened again for mating efficiency. […] DNA from the 72 unique mutants was again re-transformed into JPY201 yeast cells for more detailed in vivo functional analysis of fungicidal drug resistance and yeast mating efficiency, which were performed essentially as previously described[74],[79],[84].

[5] = target: T1, W(3Cyto) Pgp (W44H/W132L/W208P/W228M/W311Y/W694I/W704I/W851P); settings: read-out: Km(MgATP), in the presence of 30 μM verapamil
Protocol: as §2

[6] = EC50 (concentration required for 50% stimulation of the ATPase activity), WT Pgp, mean ± SD

Sequence of WL-Pgp (Trp-less Pgp, all eleven Trps substituted) (P21447 whole entry W44H/W132L/W158Y/W208P/W228M/W311Y/W694I/W704I/W799Y/W851P/W1104Y): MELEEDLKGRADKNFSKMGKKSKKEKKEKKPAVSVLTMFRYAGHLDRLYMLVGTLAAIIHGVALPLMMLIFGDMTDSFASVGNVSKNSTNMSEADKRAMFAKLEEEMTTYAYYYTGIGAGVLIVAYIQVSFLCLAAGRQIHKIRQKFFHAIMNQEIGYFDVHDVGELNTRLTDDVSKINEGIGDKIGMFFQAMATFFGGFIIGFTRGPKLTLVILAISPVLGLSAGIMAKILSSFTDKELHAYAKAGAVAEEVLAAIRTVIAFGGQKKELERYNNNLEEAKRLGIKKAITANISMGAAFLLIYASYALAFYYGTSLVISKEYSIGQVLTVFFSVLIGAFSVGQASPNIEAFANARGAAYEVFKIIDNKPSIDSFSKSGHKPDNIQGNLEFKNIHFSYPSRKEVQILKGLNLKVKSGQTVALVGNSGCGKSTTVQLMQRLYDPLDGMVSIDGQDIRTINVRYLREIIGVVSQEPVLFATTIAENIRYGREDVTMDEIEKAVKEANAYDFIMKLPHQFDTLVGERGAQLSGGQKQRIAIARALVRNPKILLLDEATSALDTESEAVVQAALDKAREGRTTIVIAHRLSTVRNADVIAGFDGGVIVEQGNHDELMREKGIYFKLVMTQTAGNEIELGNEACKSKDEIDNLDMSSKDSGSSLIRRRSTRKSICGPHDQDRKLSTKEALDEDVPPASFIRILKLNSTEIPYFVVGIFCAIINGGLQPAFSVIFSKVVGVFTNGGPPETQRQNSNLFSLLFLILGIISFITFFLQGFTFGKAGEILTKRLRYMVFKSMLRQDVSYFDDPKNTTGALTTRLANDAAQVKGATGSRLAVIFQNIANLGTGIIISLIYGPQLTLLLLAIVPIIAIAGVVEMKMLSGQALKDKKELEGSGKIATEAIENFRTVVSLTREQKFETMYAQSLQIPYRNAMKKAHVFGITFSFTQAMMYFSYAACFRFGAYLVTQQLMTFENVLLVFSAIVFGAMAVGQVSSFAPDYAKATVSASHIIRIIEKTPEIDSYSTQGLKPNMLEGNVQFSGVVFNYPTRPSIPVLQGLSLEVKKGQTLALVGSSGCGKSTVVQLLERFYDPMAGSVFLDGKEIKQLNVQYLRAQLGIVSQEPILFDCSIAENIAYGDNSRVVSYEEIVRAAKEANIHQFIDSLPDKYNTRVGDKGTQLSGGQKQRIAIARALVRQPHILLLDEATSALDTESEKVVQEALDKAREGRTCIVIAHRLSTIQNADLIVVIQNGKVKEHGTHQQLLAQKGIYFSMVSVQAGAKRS

Row | Compound | EC50 [1] | EC50 [2, 6] | EC50 [3] | further results
1 | C=CC[C@@H]1/C=C(\C)C[C@H](C)C[C@H](OC)[C@H]2O[C@@](O)(C(=O)C(=O)N3CCCC[C@H]3C(=O)O[C@H](/C(C)=C/[C@@H]3CC[C@@H](O)[C@H](OC)C3)[C@H](C)[C@@H](O)CC1=O)[C@H](C)C[C@@H]2OC [FK506] | 0.16 ± 0.04 µM | 0.084 ± 0.03 µM | 0.14 ± 0.03 µM | 
2 | CC(C)[C@@H]1NC(=O)[C@H](C)OC(=O)[C@@H](C(C)C)NC(=O)[C@@H](C(C)C)OC(=O)[C@H](C(C)C)NC(=O)[C@H](C)OC(=O)[C@@H](C(C)C)NC(=O)[C@@H](C(C)C)OC(=O)[C@H](C(C)C)NC(=O)[C@H](C)OC(=O)[C@@H](C(C)C)NC(=O)[C@@H](C(C)C)OC1=O [Valinomycin, valinomycin] | 0.34 ± 0.09 µM | 0.33 ± 0.08 µM | 0.23 ± 0.03 µM | EC50 ([2]; 50% stimulation (EC50) of ATPase function, text summary across Wt Pgp, W(3Cyto) and WL-Pgp): ~0.3 µM
3 | COc1cccc2c1C(=O)c1c(O)c3c(c(O)c1C2=O)C[C@@](O)(C(=O)CO)C[C@@H]3O[C@H]1C[C@H](N)[C@H](O)[C@H](C)O1 [doxorubicin] |  |  |  | Resistance to doxorubicin (relative to Wt Pgp) ([4]; yeast expressing mutant B (W(3Cyto))): 52 ± 14%; Resistance to doxorubicin (relative to Wt Pgp) ([4]; yeast expressing mutant C (eight TMD Trps replaced)): 43 ± 13%
4 | Nc1ncnc2c1ncn2[C@@H]1O[C@H](COP(=O)(O)OP(=O)(O)OP(=O)(O)O)[C@@H](O)[C@H]1O [MgATP] |  |  |  | Km ([1]; read-out: Km(MgATP), WL-Pgp, in the presence of 30 μM verapamil, text says mM range): 0.65 ± 0.07 mM; Km ([2]; read-out: Km(MgATP), WT Pgp, in the presence of 30 μM verapamil, text says mM range): 0.75 ± 0.2 mM; Km [5]: 400 ± 70 µM
